For data set [1], the system named is Plasmodium falciparum 3D7 (chloroquine sensitive strain). As to the kind of experiment: Anti malarial activity in vitro on Plasmodium falciparum at erythrocyte stage. The data set is classed as cell-based. Conditions: compound in crude form. The method, then: In a preferred embodiment, the compound NCLite-M1 was tested for anti-malarial activity against a known parasite Plasmodium falciprum 3D7 was used, which is chloroquine sensitive strain and the results are tabulated herein.
This study was performed in vitro on Plasmodium falciparum at erythrocyte stage. The test protocol for testing antimalarial activity is from R. E. Desjardins, C. J. Canfield, J. D. Haynes and J. D. Chulay Antimicrob. Agents Chemother. 1979, 16, 710.
A known parasite 3D7 was used, which is Chloroquine sensitive strain. 2 mg of the compound NCLite-M1 which has a molecular weight of 326.35, was dissolved in 10 mL of EtOH and used as a stock. […] Further studies using highly pure compound and its soluble salts are planned.

Structures are written as SMILES.

By melting point is commonly meant the temperature of the solid-liquid transition. What is called inhibition is the drop in the measured response relative to a control, in per cent.

`N#Cc1ccc2[nH]c(-c3ccccc3)cc2c1` [Table 2, entry 6, 2-phenyl-1H-indole-5-carbonitrile] registered a melting point of 194 to 196 °C. As to `Cc1nc2ccccc2c2ccn(S(=O)(=O)c3ccccc3)c12` [compound 3, 4-Methyl-3-(phenylsulfonyl)-3H-pyrrolo[2,3-c]quinoline], the melting point fell in the range of 143 to 145 °C. In the case of `N#Cc1ccc2nc(-c3ccccc3)c3ccccc3c2c1` [Table 2, entry 5, 6-phenylphenanthridine-2-carbonitrile], the melting point fell in the range of 233 to 235 °C. Take `O=c1c2ccccc2ncn1Cc1nc2ccccc2c2cc[nH]c12` [NCLite-M1, 3-((3H-pyrrolo[2,3-c]quinolin-4-yl)methyl)quinazolin-4(3H)-one]: the “lowest concentration at which the compound is active” value in data set [1] (P. falciparum 3D7) is 2 µmol. Also, the inhibition at 25 µM in data set [1] (Plasmodium falciparum, concentration 25 μM, P. falciparum 3D7, erythrocyte stage, read-out: % inhibition by NCLite-M1) stood at 19.5%. For the same molecule, the inhibition at 50 µM in data set [1] (Plasmodium falciparum, concentration 50 μM, P. falciparum 3D7, erythrocyte stage, read-out: % inhibition by NCLite-M1) turned out to be 77.2%. In addition, the inhibition at 75 µM in data set [1] (Plasmodium falciparum, concentration 75 μM, P. falciparum 3D7, erythrocyte stage, read-out: % inhibition by NCLite-M1) came to 89.4%. Besides, the “% inhibition by NCLite-M1” value in data set [1] (concentration 2-5 μM, P. falciparum 3D7, erythrocyte stage) was determined as 17.6%.

On to `Nc1ncnc2c1ncn2Cc1nc2ccccc2c2cc[nH]c12` [Aplidiopsamine A], for which the melting point is 229 to 231 °C.

Take `Cc1nc2cc(Cl)ccc2c2ccn(S(=O)(=O)c3ccccc3)c12` [Table 2, entry 2, 7-chloro-4-methyl-3-(phenylsulfonyl)-3H-pyrrolo[2,3-c]quinoline]: the melting point fell in the range of 178 to 180 °C.

For the origin of these results see patent US9518051B2, “Pyrroloquinoline alkaloids as antimalarial agents and process for the preparation thereof” (Council of Scientific & Industrial Research, priority 2012, dated 2016).
